Results published in a melting point compilation (Tetko et al.; mined from patent text by program, amines drawn as free bases though some values may be those of a salt).

| SMILES | melting point |
| --- | --- |
| CN1C(=O)CN(c2ccccc2)C1=O | 168 to 170 °C |
| CC(=O)OCc1ccc2oc(=O)c(C(=O)Oc3cc(F)ccc3[N+](=O)[O-])cc2c1 | 157 to 161 °C |
| CCCN(C)C1CCc2c(cccc2NC(C)=O)C1 (stereo unspecified) | 78 °C |
| C[C@]12C/C(=C\F)[C@H]3[C@@H](CCC4=CC(=O)CC[C@@H]43)[C@@H]1CCC2=O | 208 to 212 °C |
| O=C(O)CC1CCC2(CC1)OOC1(O2)C2CC3CC(C2)CC1C3 (stereo unspecified) | 146 to 148 °C |
| O=C(O)c1cccc2nc(C(F)(F)C(F)(F)C(F)(F)F)n(Cc3ccccc3Cl)c12 | 213 to 214 °C |
| c1cn(Cc2ccc3c(c2)Cc2c(-c4ccsc4)n[nH]c2-3)cn1 | 255 to 260 °C |
| Cn1ccc2cc(C(=O)NN)ccc21 | 140 to 141 °C |
| CCc1ccc(NC(=O)c2sccc2S(=O)(=O)Nc2onc(C)c2Br)cc1 | 187 to 190 °C |
| O=C1NCN(c2ccccc2)C12CCN(C1CCC(c3ccc(F)cc3)(c3ccc(F)cc3)CC1)CC2 | 249 to 253 °C |
| CC(=O)n1cc(O)c2cc(Br)ccc21 | 180 to 182 °C |
| CC(=O)NCc1nc2c(N)nc(C)c(C)c2n1CC(C)C | 162 to 164 °C |
| NS(=O)(=O)c1cc(C(=O)CCCCN(CCc2ccccc2OC(F)(F)F)C(=O)C(F)(F)F)cc2c1OCC2 | 108 to 110 °C |
| C#CCOc1ccc2c(C)cc(=O)oc2c1C(=O)C=Cc1cc(OC)c(OC)c(OC)c1 | 191 to 193 °C |
| CC[C@H](C)[C@H](OCc1ccccc1)[C@@H]1[C@H]([N+](=O)[O-])[C@H](c2ccccc2)N[C@]1(C)C(=O)NCC(=O)O | 89 to 90 °C |
| O=C(CBr)C1=NO[C@@H](c2ccccc2)C1 | 31 to 33 °C |
| COC(COc1cccc2c(OCC(OC)OC)cccc12)OC | 117 °C |
| C#CC1=CCC2C3CCC4=CC(=O)CCC4C3CCC12C (stereo unspecified) | 148 to 152 °C |
| Cc1c(-c2nc(-c3c(F)cccc3Cl)nn2C)csc1Br | 133 to 134 °C |

| SMILES | melting point |
| --- | --- |
| C[C@]1(N2C(=O)c3cccc(Nc4ccc5c(c4)CCC5)c3C2=O)CCC(=O)NC1=O | 200 to 202 °C |
| Cc1cc(-c2cnn3c(C(F)(F)F)cc(-c4ccc(C(F)(F)F)c(F)c4)nc23)ccn1 | 250 °C |
| Cc1nc(C(Cl)(Cl)Cl)nc(O)c1Cl | 130 to 145 °C |
| CN(C)S(=O)(=O)N(C)c1ccc(C(O)(C(F)(F)F)C(F)(F)F)cc1 | 63 to 65 °C |
| COC(=O)c1cc(N)n(C)n1 | 101 to 102 °C |
| CN1CC(CCCl)Oc2ccc(Br)cc2C1=S (stereo unspecified) | 118 to 120 °C |
| CCCOc1ccccc1-c1nc2c(CCC)nn(C)c2c(=O)[nH]1 | 115 to 116 °C |
| O=C1c2c(Cl)ccc(Cl)c2-c2nn(CCNCCO)c3ccc(NCCNCCO)c1c23 | 196 °C |
| CCc1nn(CCOC(N)=O)c(CC)c1Cc1cc(Cl)cc(Cl)c1 | 145 to 147 °C |
| Fc1cccc(-c2nc3cnccc3[nH]2)c1 | 290 to 291 °C |
| Cc1cccc(-n2nc(C)c3c(=O)c4cc(F)c(F)cc4[nH]c32)n1 | 301 to 302 °C |
| COc1cc2c(cc1Nc1ncc(C(F)(F)F)c(N[C@H]3[C@@H](C(N)=O)[C@@H]4C=C[C@H]3C4)n1)CCN(CC(=O)N(C)C)CC2 | 133 to 135 °C |
| O=C(c1ccccc1)N1CC2C(C1)C2N(C(=O)c1ccccc1)c1ncc2cc(-c3ccccc3Cl)c(=O)n(C3CC3)c2n1 (stereo unspecified) | 124 to 130 °C |
| COC(=O)C1CC2C3CCc4cc(O)ccc4C3CCC2(C)C1=O (stereo unspecified) | 215 to 217 °C |
| CC1CC(C)CN(CN2C(=O)CN(CC(C)N3CC(=O)N(CN4CC(C)CC(C)C4)C(=O)C3)CC2=O)C1 (stereo unspecified) | 142 to 144 °C |
| CCn1c(=O)c2c(nc(C=Cc3cc(OC)ccc3S(=O)(=O)O)n2C)n(CC)c1=O | 209 to 210 °C |
| Cc1cc(O)c2c3c(oc(=O)c2c1)C(=O)c1c(O)cccc1C3=O | 236 to 238 °C |
| CS(=O)(=O)c1ccc(C(CC2CCCC2)C(=O)Nc2nccs2)cc1NO (stereo unspecified) | 124 to 126 °C |
| COc1cccc2c(=O)c3c(O)cc(OCC4CO4)cc3oc12 (stereo unspecified) | 182 °C |

| SMILES | melting point |
| --- | --- |
| O=C(Oc1cccc2c(-c3ccccc3)c3cccc(OC(=O)C4CCCCC4)c3c(OC(=O)C3CCCCC3)c12)C1CCCCC1 | 235 °C |
| CC12CCC3c4ccc(O)cc4CCC3C1CCC2=CF (stereo unspecified) | 125 to 129 °C |
| COc1ccc2c(c1)CCN1C[C@H]3CCCN[C@H]3C[C@@H]21 | 125 to 127 °C |
| CC(=O)n1[nH]c(=O)n(-c2ccccc2)c1=O | 215 to 218 °C |
| O=c1c2c(Cl)cc(Cl)cc2n(Cc2ccccc2)c(=O)n1Cc1ccccc1 | 104 to 106 °C |
| O=S(=O)(c1ccccc1)c1ccccn1 | 90 to 91 °C |
| COc1cccc(Nc2nc(N)nc3[nH]c4ccccc4c23)c1 | 225 to 226 °C |
| COc1cc(OC)c(C(=O)CCl)cc1C | 166 to 167 °C |
| CC(C)(C)c1nc2cc(N3CCCC3)c(NC(N)=S)cc2s1 | 221 °C |
| Cc1ccc(F)c2c1NC(=O)C21COc2cc3c(cc21)CCO3 (stereo unspecified) | > 250 °C |
| O=Cc1c(Cl)cc(Cl)cc1-c1ccc(F)cc1 | 73 to 74 °C |
| Cc1nn(CC(=O)O)cc1C(=O)Nc1ccc(OCC(C)(C)C)c(C#N)c1 | 234 to 245 °C |
| O=C1[C@H]2CCCC[C@H]2C(=O)N1Cc1ccncc1 | 91 to 92 °C |
| O[C@@H]1Cc2ccccc2C[C@H]1N1CCN(c2ccccc2)CC1 (relative stereo) | 152 to 154 °C |
| Cc1nn(C)c(Oc2ccccn2)c1C=O | 56 to 57 °C |
| Cn1cc2c3c(c(Cl)cc2n1)CCC3=CC#N | 224 to 226 °C |
| C#CC(O)c1ncn(C(c2ccccc2)(c2ccccc2)c2ccccc2)n1 (stereo unspecified) | 138 to 139 °C |
| COC1=CC23CCN(C=O)C(Cc4cccc(OC)c42)C3CC1 (stereo unspecified) | 169 to 172 °C |
| CNC(=O)C(SC)c1cccc(C(=O)c2ccccc2)c1N (stereo unspecified) | 149 to 150 °C |

Results, then the compound that gave them:

| melting point | SMILES |
| --- | --- |
| 170 °C | COC1(OC)C(=O)Nc2ccc(C(=O)c3ccc(Cl)cc3)cc21 |
| 62.5 to 64 °C | C=CCC1(C(=O)NCCCC)c2ccccc2-c2ccccc21 |
| 52 to 53 °C | CCOC(=O)c1ccc(OCCCCCCCCC#CCCCCOc2ccc(Cl)cc2)cc1 |
| > 300 °C | CC(C)(C)c1ccc(NC(=O)c2ccc(C3NOC(=O)N3)cc2)cc1 (stereo unspecified) |
| 114 to 115 °C | CCOc1nn(-c2ccc(C(F)(F)F)cc2)cc1CCCOc1ccccc1CC(=O)O |
| 178 to 180 °C | CCCCC1c2ccccc2-c2cc(Br)ccc2N1S(=O)(=O)c1ccc(O)cc1 (stereo unspecified) |
| 75 to 85 °C | CCN(CC)CCN1C(=O)c2ccc(NC(C)=O)cc2Oc2cc(C(F)(F)F)ccc21 |
| 84 to 86 °C | CCCCc1nn(-c2cc([N+](=O)[O-])ccc2Cl)c(=O)n1Cc1ccc(-c2cc(CCC)ccc2S(=O)(=O)NC(C)(C)C)cc1F |
| > 228 °C | Cc1ccc([N+](=O)[O-])cc1Nc1ncc(-c2ccc(C#N)cc2)o1 |
| 148 to 149 °C | CC1(C)CC(=C(c2ccc(O)cc2)c2ccc(I)cc2)CC(C)(C)C1 |
| 176 to 178 °C | O=C(NC(=O)N(Sc1ccccc1[N+](=O)[O-])c1ccc(Cl)cc1)c1c(F)cccc1F |
| 283 to 285 °C | Cn1cnc2nc(-c3ccc(Cl)cc3)nn2c1=S |
| 52 to 54 °C | CCCCCCCCCCCCCCCCCC(=O)OC(CCc1cc(C(C)(C)C)c(O)c(C(C)(C)C)c1)CCc1cc(C(C)(C)C)c(O)c(C(C)(C)C)c1 |
| 110 °C | CNC(=O)C(c1ccccc1F)N(C(=O)CNC(=O)Nc1cccc(C)c1)c1cccc(OC)c1 (stereo unspecified) |
| 188 °C | CCOC(=O)c1ncc2[nH]c3cccc(OCc4cccc(F)c4)c3c2c1COC |
| 155 to 158 °C | CN(C)CCNC(=S)Nc1ccc(-c2nnc(CSCCOc3ccccc3)o2)cc1 |
| 164 to 167 °C | O=C(COc1cccc(CCNC(=O)OCc2ccccc2)c1)Nc1nnn[nH]1 |
| 183 to 185 °C | CCN/C(=C1\C(=O)c2ccccc2S1=O)c1ccccc1 (stereo unspecified) |
| 178 to 179 °C | Cc1c(NC(=O)c2ccc(C3CCCCC3)cc2)ccc2cc(CN3CCCC3)cnc12 |
| 131 to 133 °C | CCC(C)(Oc1ccc(CC(=O)Nc2cc(C)cc(C)c2)cc1)C(=O)O (stereo unspecified) |

| melting point | SMILES |
| --- | --- |
| 85 to 86 °C | CC(C)(C)NCC(O)COC(=O)c1ccc(OCc2ccccc2)c(OCc2ccccc2)c1 (stereo unspecified) |
| 95.3 to 111 °C | CC(C)(C)OC(=O)N(CCCc1ccc(Cl)cc1)C1CCCC1N (stereo unspecified) |
| 221 to 222 °C | O=C(O)c1ccc(OCCCc2cc(-c3ccc(C(F)(F)F)cc3)no2)cc1 |
| 187 to 189 °C | CC(C)(C)c1ccc(-c2[nH]c3nccnc3c2CCCO)cc1 |
| 136 to 138 °C | Cc1cccc(NC(c2ccc(C(F)(F)F)cc2)c2ccc3cccnc3c2O)n1 (stereo unspecified) |
| 158 to 159 °C | COC(=O)c1cc2c3ccccc3n(Cc3ccccc3)c2s1 |
| 175 to 176 °C | Cc1cccc2c1nc(-c1ccc3ccccc3c1)n2Cc1c(F)cccc1F |
| 139 °C | CCCCN(C(=O)CNC(=O)c1cc2ccccc2n1CC(=O)OC)c1c(OC)cc(C)cc1OC |
| 66 to 67 °C | CC(=O)/C=C(\C)c1ccc(-c2ccccc2)c(Cl)c1 |
| 69 to 71 °C | CCOC(=O)CC(C#N)(CC(=O)OCC)c1ccc(Cl)c(Cl)c1 |
| 259 to 261 °C | O=C(Cc1ccccc1)Nc1ncc(-c2ccc(O)cc2)nc1Cc1ccccc1 |
| 116 to 117 °C | CCCCCCCCCCCCCCCCCCc1ccc(S(=O)(=O)Nc2nncs2)cc1 |
| 174 to 175 °C | CCCCCCC(C(=O)OCC)c1ccc(NC(=O)C2c3ccccc3-c3ccccc32)cc1 (stereo unspecified) |
| 147 to 150 °C | COCCOc1ccc(CCCOC(=O)NS(=O)(=O)c2ccc(Cl)cc2)c(Oc2ncc(C(F)(F)F)cc2Cl)c1 |
| 210 °C | CCCCCc1ccc(-c2nc(C)c(C(C)=NNC(=N)N)s2)cc1 |
| 100 to 102 °C | CCCCCc1ccc(OC(=O)N2CCC(OC(=O)NCCCCCCOC(=O)N3CCC4(CCCC4)CC3)CC2)cc1 |
| 201 to 203 °C | CCCCn1c(-c2ccccc2)c(Cc2c(O)ccc3ccccc23)c(=O)[nH]c1=S |
| 148 to 149 °C | Oc1cncc(CCCOc2cccnc2Oc2cccc(Cl)c2)c1 |
| 207 °C | Clc1ccc2c(Nc3ccccc3)ccnc2c1 |
